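1) Cells in 96-well plates. 2) Compound, 48 h, 5 concentrations. 3) Linear interpolation between surrounding doses. 4) Unreached endpoint = highest concentration. Abbreviation: GI50, concentration required for 50% inhibition of growth.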 Calls of active or inactive are those of the source. Cut-off read from the data, not from the text of the source: active = GI50 up to about 1.1 µM and inactive = higher.
Assays:
Experiment in all cases: DTP human tumour cell line panel, 48 h
A498 = test system: A498
ACHN = test system: ACHN
EKVX = test system: EKVX
Hs-578T = test system: Hs-578T
KM12 = test system: KM12
M14 = test system: M14
MDA-N = test system: MDA-N
Malme-3M = test system: Malme-3M
NCI-H23 = test system: NCI-H23
NCI-H522 = test system: NCI-H522
OVCAR-3 = test system: OVCAR-3
RPMI-8226 = test system: RPMI-8226
SF-268 = test system: SF-268
SK-OV-3 = test system: SK-OV-3
SR = test system: SR
SW-620 = test system: SW-620
T47D = test system: T47D
UACC-62 = test system: UACC-62
UO-31 = test system: UO-31
HL-60 = test system: HL-60

| Structure (SMILES) | GI50 (A498) | GI50 (ACHN) | GI50 (EKVX) | GI50 (Hs-578T) | GI50 (KM12) | GI50 (M14) | GI50 (MDA-N) | GI50 (Malme-3M) | GI50 (NCI-H23) | GI50 (NCI-H522) | GI50 (OVCAR-3) | GI50 (RPMI-8226) | GI50 (SF-268) | GI50 (SK-OV-3) | GI50 (SR) | GI50 (SW-620) | GI50 (T47D) | GI50 (UACC-62) | GI50 (UO-31) | GI50 (HL-60) |
| --- | --- | --- | --- | --- | --- | --- | --- | --- | --- | --- | --- | --- | --- | --- | --- | --- | --- | --- | --- | --- |
| CSc1c(C)[n+]([O-])c2cc(Cl)c(Cl)cc2[n+]1[O-] | 21.6 µM (inactive) | 16.8 µM (inactive) | 16.3 µM (inactive) | 24.2 µM (inactive) | 31.4 µM (inactive) | 19.8 µM (inactive) | 16 µM (inactive) | 16.9 µM (inactive) | 16.2 µM (inactive) | 12.2 µM (inactive) | 11.5 µM (inactive) | 9.73 µM (inactive) | 18.5 µM (inactive) | > 100 µM (inactive) | 3.13 µM (inactive) | 16.8 µM (inactive) | 20.8 µM (inactive) | 14.9 µM (inactive) | 16.3 µM (inactive) |  |
| CSc1cc(Cl)c(C)cc1S(=O)(=O)NC(=O)NNc1cccc(C(F)(F)F)n1 | > 100 µM (inactive) | > 100 µM (inactive) | > 100 µM (inactive) | > 100 µM (inactive) | > 100 µM (inactive) | > 100 µM (inactive) | > 100 µM (inactive) | > 100 µM (inactive) |  | > 100 µM (inactive) | > 100 µM (inactive) |  | > 100 µM (inactive) | > 100 µM (inactive) | > 100 µM (inactive) | > 100 µM (inactive) | > 100 µM (inactive) |  |  |  |
| CCOC(=O)c1cc(C2(O)CCN(Cc3ccccc3)C2=O)c(-c2cc(C)no2)[nH]1 (configuration not stated) | > 100 µM (inactive) | 45.5 µM (inactive) | 41.4 µM (inactive) | 34 µM (inactive) | 37.8 µM (inactive) | 55 µM (inactive) | 57.3 µM (inactive) | > 100 µM (inactive) | 73.3 µM (inactive) | 15.4 µM (inactive) | 36.5 µM (inactive) | 26.4 µM (inactive) | > 100 µM (inactive) |  | 27.3 µM (inactive) | 47.1 µM (inactive) | 17.9 µM (inactive) | 47.8 µM (inactive) | 32.1 µM (inactive) | 15.3 µM (inactive) |
| COC(=O)CN(CC1O[C@@H]2OC(C)(C)O[C@@H]2C1NC(C)=O)C(=O)OCc1ccccc1 (some centres not stated) | > 100 µM (inactive) | > 100 µM (inactive) | > 100 µM (inactive) | > 100 µM (inactive) | > 100 µM (inactive) | > 100 µM (inactive) | > 100 µM (inactive) |  |  | > 100 µM (inactive) | > 100 µM (inactive) | > 100 µM (inactive) | > 100 µM (inactive) | > 100 µM (inactive) | > 100 µM (inactive) | > 100 µM (inactive) | > 100 µM (inactive) | > 100 µM (inactive) | > 100 µM (inactive) | > 100 µM (inactive) |
| COc1ccc(-n2c(=O)n(C)c(=O)n2-c2ccc(OC)cc2)cc1 | > 100 µM (inactive) | > 100 µM (inactive) | > 100 µM (inactive) | 9.48 µM (inactive) | > 100 µM (inactive) | > 100 µM (inactive) | > 100 µM (inactive) |  | > 100 µM (inactive) |  | > 100 µM (inactive) | > 100 µM (inactive) | > 100 µM (inactive) | > 100 µM (inactive) | > 100 µM (inactive) | > 100 µM (inactive) | > 100 µM (inactive) | > 100 µM (inactive) | > 100 µM (inactive) | > 100 µM (inactive) |
| CCCCCCCCCCCCCCCCNC(=O)/C(O)=C/C(=O)c1ccc(C)cc1 | > 10 µM (inactive) | > 10 µM (inactive) | > 10 µM (inactive) | > 10 µM (inactive) | > 10 µM (inactive) | > 10 µM (inactive) | > 10 µM (inactive) | > 10 µM (inactive) | > 10 µM (inactive) | > 10 µM (inactive) | > 10 µM (inactive) | > 10 µM (inactive) | > 10 µM (inactive) | > 10 µM (inactive) | > 10 µM (inactive) | > 10 µM (inactive) | > 10 µM (inactive) |  | > 10 µM (inactive) | 8.05 µM (inactive) |
| COc1ccc(/N=N/C(=N\c2ccccc2)c2ccc(N(CCC#N)CCC#N)cc2)cc1 | 67.6 µM (inactive) | > 100 µM (inactive) | 27.4 µM (inactive) | 45.8 µM (inactive) | 26 µM (inactive) | 69.8 µM (inactive) | 85.9 µM (inactive) |  | 51.4 µM (inactive) | 22.7 µM (inactive) | 18 µM (inactive) | 41 µM (inactive) | 97.7 µM (inactive) | > 100 µM (inactive) | 25.9 µM (inactive) | > 100 µM (inactive) | 33.5 µM (inactive) | 51.5 µM (inactive) | 80.9 µM (inactive) |  |
| O=C(OCc1ccccc1)N1CCNCCN(C(=O)OCc2ccccc2)CCNCC1 | 27.5 µM (inactive) | 50.4 µM (inactive) | 28 µM (inactive) | 21.2 µM (inactive) | 26 µM (inactive) |  | 15.6 µM (inactive) |  |  | 16.3 µM (inactive) | 35.4 µM (inactive) | 20.2 µM (inactive) |  | 49.8 µM (inactive) | 86.1 µM (inactive) | 32.1 µM (inactive) | 0.254 µM (active) | 27.5 µM (inactive) | 7.03 µM (inactive) | 24.3 µM (inactive) |

— ChEMBL document CHEMBL1201862, “PubChem BioAssay data set” (2004)
